Like-named read-outs stand apart in the source and are kept apart here.
Key:
thrombin [1] = biological target: T1, thrombin (Homo sapiens, UniProt P00734); design: method as in Shapira et al. 2022 Nature; details: ref Shapira et al. 2022 Nature; cited from earlier work
T1 construct: purchased MilliporeSigma

matriptase [2] = biological target: T2, matriptase (Homo sapiens, UniProt Q9Y5Y6); design: method as in Shapira et al. 2022 Nature; details: ref Shapira et al. 2022 Nature; cited from earlier work
T2 construct: made in house
T2 sequence (Q9Y5Y6 1-855): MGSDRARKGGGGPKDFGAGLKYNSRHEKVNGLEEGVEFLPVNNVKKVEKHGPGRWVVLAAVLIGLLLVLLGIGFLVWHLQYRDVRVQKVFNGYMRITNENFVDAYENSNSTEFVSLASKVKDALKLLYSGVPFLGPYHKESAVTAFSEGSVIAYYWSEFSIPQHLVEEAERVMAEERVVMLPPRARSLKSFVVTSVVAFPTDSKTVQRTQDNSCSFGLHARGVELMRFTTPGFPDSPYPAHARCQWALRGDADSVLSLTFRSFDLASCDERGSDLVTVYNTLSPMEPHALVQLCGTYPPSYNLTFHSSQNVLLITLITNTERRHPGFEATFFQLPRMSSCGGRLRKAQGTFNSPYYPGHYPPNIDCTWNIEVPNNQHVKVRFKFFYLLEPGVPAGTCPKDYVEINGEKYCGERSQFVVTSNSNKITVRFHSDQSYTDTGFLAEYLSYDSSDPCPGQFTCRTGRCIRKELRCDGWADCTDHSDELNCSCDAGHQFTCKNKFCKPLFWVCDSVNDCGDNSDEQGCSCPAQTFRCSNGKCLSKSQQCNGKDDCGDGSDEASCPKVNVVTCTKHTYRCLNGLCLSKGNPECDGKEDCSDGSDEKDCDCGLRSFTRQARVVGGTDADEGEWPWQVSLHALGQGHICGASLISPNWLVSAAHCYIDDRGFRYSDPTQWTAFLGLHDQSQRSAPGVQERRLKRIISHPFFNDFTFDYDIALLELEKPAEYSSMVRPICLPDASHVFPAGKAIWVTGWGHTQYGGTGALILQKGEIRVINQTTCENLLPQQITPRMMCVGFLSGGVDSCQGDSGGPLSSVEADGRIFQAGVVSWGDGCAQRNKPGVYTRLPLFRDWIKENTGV

furin [3] = biological target: T3, furin (Homo sapiens, UniProt P09958); design: method as in Shapira et al. 2022 Nature; details: ref Shapira et al. 2022 Nature; cited from earlier work
T3 construct: purchased R&D Systems
T3 sequence (P09958 108-794): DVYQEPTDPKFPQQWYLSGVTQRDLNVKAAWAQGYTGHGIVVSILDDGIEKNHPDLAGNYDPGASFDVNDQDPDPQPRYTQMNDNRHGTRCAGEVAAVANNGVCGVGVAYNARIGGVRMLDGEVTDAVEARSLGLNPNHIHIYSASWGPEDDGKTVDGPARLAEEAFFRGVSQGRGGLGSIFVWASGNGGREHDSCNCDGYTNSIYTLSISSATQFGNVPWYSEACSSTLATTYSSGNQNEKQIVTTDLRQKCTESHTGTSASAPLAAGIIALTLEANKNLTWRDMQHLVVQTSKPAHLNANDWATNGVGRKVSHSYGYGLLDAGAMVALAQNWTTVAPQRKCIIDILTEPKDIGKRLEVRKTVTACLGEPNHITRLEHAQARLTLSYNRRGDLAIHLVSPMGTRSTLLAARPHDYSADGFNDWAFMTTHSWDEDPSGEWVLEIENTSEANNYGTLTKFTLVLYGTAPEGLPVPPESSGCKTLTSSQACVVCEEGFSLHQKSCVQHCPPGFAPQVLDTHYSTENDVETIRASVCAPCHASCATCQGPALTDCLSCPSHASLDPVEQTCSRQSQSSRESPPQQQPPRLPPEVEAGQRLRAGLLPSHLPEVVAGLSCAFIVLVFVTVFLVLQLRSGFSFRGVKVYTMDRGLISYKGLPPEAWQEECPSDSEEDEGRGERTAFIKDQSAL

in vitro = details: final conc. 0.2 mM, 37 °C; for half-life at 0.2 mM: male, Sprague-Dawley, rat, pooled rat plasma (K2EDTA), Mean half-life, Plasma
Description: Adult male Sprague-Dawley rats, weighing between 225 and 300 g (Charles River Laboratories, St. Constant, Canada), were housed in groups of four per double-decker cage on Aspen shavings in a quiet environment. They were maintained under a 12-h light/dark cycle with unrestricted access to food and water. All experimental protocols received approval from the Animal Care Committee of the Université de Sherbrooke, adhering to the Canadian Council on Animal Care guidelines. The procedures also followed the ARRIVE guidelines (Animals in Research: Reporting In Vivo Experiments) and the United States NIH regulations (Ethics approval ID: 2022–3440). To evaluate the stability of compounds in plasma, 6 rats were anaesthetised with 2 L/min oxygen and 5% isoflurane, after which plasma was collected, pooled, and stored frozen until experiments were performed.
For evaluating plasma stability, rats were anaesthetised using a flow of 2 L/min of oxygen combined with 5% isoflurane. Blood was obtained via cardiac puncture from the left ventricle using a 20 G ½ needle, collected in pre-chilled Vacutainer K2EDTA tubes (367861), and maintained on wet ice. The blood was then centrifuged at 2000 xG for 15 min at 4 °C. Plasma samples were pooled from six rats, aliquoted, and stored at −80 °C. […] To terminate the reaction, 140 μL of a 1:1 acetonitrile-ethanol solution containing 0.25 mM N,N-dimethylbenzamide (used as an internal standard) was added. The resulting mixture was transferred onto an Impact Protein Precipitation filter plate (Phenomenex, California), with a 96-well UPLC plate positioned below to collect the filtrates. Both plates were centrifuged at 500 × g for 10 min at 4 °C. The filtrates were diluted with 30 μL of distilled water before analysis using an Acquity UPLC-MS system class H (column Acquity UPLC protein BEH C18 (2.1 mm × 50 mm), 1.7 μm particles, 130 Å pore size). The peptide’s half-life was determined from the degradation profile utilising the exponential one-phase decay function in GraphPad Prism 9. Mass spectra obtained at time points close to the calculated half-life were compared with those at 0 min (plasma inactivated prior to compound addition) to identify cleavage fragments.

thrombin [4] = biological target: T1, thrombin; assay: In vitro inhibition assay, thrombin, Boc-QAR-AMC; format: biochemical
Experimental: (§1) Recombinant TMPRSS13-AFAAS-6His (this study) and matriptase[34] were expressed and purified as described. Recombinant human furin, Factor Xa (R&D Systems) and thrombin (MilliporeSigma) were obtained from commercial sources. Assays were performed in a buffer composed of 50 mM HEPES pH 7.4, 1 mM β-mercaptoethanol, 1 mM CaCl2 and 500 μg/ml BSA for furin and 50 mM HEPES pH 7.4, 150 mM NaCl and 0.1% BSA for other proteases. Assays were performed at room temperature using fluorogenic substrates (Boc-RVRR-AMC for furin and TMPRSS13, Boc-QAR-AMC for other proteases). The enzymatic activity was measured via fluorescence (excitation at 360 nm and emission at 460 nm) at room temperature using an HTX Synergy microplate reader (Agilent). Kis for TMPRSS13 and Factor Xa (FXa) were derived from IC50 dose–response curves using the Cheng-Prusoff equation[35] for reversible competitive inhibitors. For matripase, a plot of the enzyme velocity as a function of the inhibitor concentration was fitted with nonlinear regression analysis via the Morrison Ki equation[36] for competitive tight-binding inhibitors.

matriptase [5] = biological target: T2, matriptase; assay: In vitro inhibition assay, matriptase, Boc-QAR-AMC; format: biochemical; details: Morrison Ki equation, tight-binding
Experimental: as §1

furin [6] = biological target: T3, furin; assay: In vitro inhibition assay, furin, Boc-RVRR-AMC; format: biochemical
Experimental: as §1

Row | Compound | Ki (thrombin [1]) [µM] | Ki (matriptase [2]) [µM] | Ki Matriptase (matriptase [2]) | Ki (furin [3]) [µM] | half-life at 0.2 mM (in vitro) [h] | Mean half-life, Plasma (in vitro; rat plasma (male)) [h] | Ki (thrombin [4]) [µM] | Ki (matriptase [5]) [µM] | Ki Matriptase (matriptase [5]) | Ki (furin [6]) [µM]
1 | N=C(N)NCCCCC(=O)N[C@@H](CCC(N)=O)C(=O)N[C@@H](Cc1ccccc1)C(=O)N[C@@H](CCCNC(=N)N)C(=O)c1nc2ccccc2s1 [Compound N-0130, (H)-RQFR-Kbt] | 8.23 ± 1.55 | 0.00013 ± 3e-05 | subnanomolar | > 10 | 79.2 | 78.5 |  |  |  | 
2 | N=C(N)NCCCCC(=O)N[C@@H](CCC(N)=O)C(=O)N[C@@H](CCc1ccccc1)C(=O)N[C@@H](CCCNC(=N)N)C(=O)c1nc2ccccc2s1 [Compound N-0430, (H)-RQhFR-Kbt] |  |  |  |  | 40.8 |  | > 10 | 0.00028 ± 5e-05 | subnanomolar | > 10

Reference: publication PMC11843629, “Development of ketobenzothiazole-based peptidomimetic TMPRSS13 inhibitors with low nanomolar potency” (Journal of Enzyme Inhibition and Medicinal Chemistry, 2025)
